≈ marks a conversion by molar mass, not a printed value. Calls of active or inactive are those of the source. The calls are words filed in the database; no cut-off is given here.
Columns and labels:
[1] = system: Pseudomonas aeruginosa; assay: Synergistic antibacterial activity against Pseudomonas aeruginosa PAO1 assessed as inhibition of bacterial growth at 1 ug/ml incubated for 24 hrs in the presence of Clarithromycin by absorbance based microplate reader analysis relative to control; type: functional
[2] = system: Pseudomonas aeruginosa; assay: Antibacterial activity against Pseudomonas aeruginosa 27853 assessed as inhibition of bacterial growth at 256 ug/ml measured after 25 hrs by absorbance based assay; type: functional, organism-based; conditions: dose 256.0 µg/ml
[3] = system: Bacillus subtilis; assay: Antibacterial activity against penicillin-susceptible Bacillus subtilis ATCC9372 assessed as inhibition of bacterial growth incubated for 20 hrs by CLSI protocol based microdilution method; type: functional
[4] = system: Bacillus pumilus; assay: Antibacterial activity against penicillin-susceptible Bacillus pumilus CMCC63202 assessed as inhibition of bacterial growth incubated for 20 hrs by CLSI protocol based microdilution method; type: functional
[5] = system: Staphylococcus aureus; assay: Antibacterial activity against erthromycin-susceptible Staphylococcus aureus ATCC25923 assessed as inhibition of bacterial growth incubated for 20 hrs by CLSI protocol based microdilution method; type: functional
[6] = system: Staphylococcus aureus; assay: Antibacterial activity against methicillin-resistant Staphylococcus aureus ATCC43300 assessed as inhibition of bacterial growth incubated for 20 hrs by CLSI protocol based microdilution method; type: functional
[7] = system: Pseudomonas aeruginosa; assay: Antibacterial activity against penicillin-susceptible Pseudomonas aeruginosa ATCC27853 assessed as inhibition of bacterial growth incubated for 20 hrs by CLSI protocol based microdilution method; type: functional
[8] = system: Escherichia coli; assay: Antibacterial activity against penicillin-susceptible Escherichia coli ATCC25922 assessed as inhibition of bacterial growth incubated for 20 hrs by CLSI protocol based microdilution method; type: functional
[9] = system: Pseudomonas aeruginosa; assay: Antibacterial activity against wild type Pseudomonas aeruginosa […] CGMCC1.12483 assessed as inhibition of bacterial growth incubated for 20 hrs by CLSI protocol based microdilution method; type: functional
[10] = Inhibition of quorum sensing system in Pseudomonas aeruginosa PAO1 assessed as inhibition of pyocyanin production at 102.4 ug/ml incubated for 18 hrs by absorbance based assay; conditions: dose 102.4 µg/ml
[11] = system: Pseudomonas aeruginosa; assay: Antibacterial activity against Pseudomonas aeruginosa PAO1 assessed as inhibition of bacterial growth at 256 ug/ml measured after 25 hrs by absorbance based assay; type: functional, organism-based; conditions: dose 256.0 µg/ml
[12] = Inhibition of quorum sensing system in Pseudomonas aeruginosa PAO1 assessed as inhibition of protease activity at 102.4 ug/ml incubated for 24 hrs by absorbance based assay; conditions: dose 102.4 µg/ml
[13] = Inhibition of quorum sensing system in Pseudomonas aeruginosa PAO1 assessed as inhibition of rhamnolipid production at 102.4 ug/ml incubated for 24 hrs by absorbance based assay; conditions: dose 102.4 µg/ml
[14] = system: Pseudomonas aeruginosa; assay: Inhibition of biofilm formation in Pseudomonas aeruginosa PAO1 at 32 ug/ml incubated for 20 hrs by crystal violet staining based analysis; type: functional
[15] = Hemolytic activity in mouse red blood cells assessed as hemolysis rate at 512 ug/ml incubated for 1 hrs by microplate reader analysis relative to control; type: toxicity, cell-based, Erythrocyte; conditions: red blood cells (erythrocytes), at 512 µg/mL, read-out: Activity
[16] = system: Pseudomonas aeruginosa; assay: Synergistic antibacterial activity against Pseudomonas aeruginosa 27853 assessed as inhibition of bacterial growth at 256 ug/ml incubated for 24 hrs in the presence of Clarithromycin by absorbance based microplate reader analysis relative to control; type: functional
[17] = system: Pseudomonas aeruginosa; assay: Synergistic antibacterial activity against Pseudomonas aeruginosa 27853 assessed as inhibition of bacterial growth at 1 to 256 ug/ml incubated for 24 hrs in the presence of Ciprofloxacin by absorbance based microplate reader analysis; type: functional, organism-based; conditions: dose 1-256 µg/ml
[18] = system: Pseudomonas aeruginosa; assay: Synergistic antibacterial activity against Pseudomonas aeruginosa 27853 assessed as inhibition of bacterial growth at 64 ug/ml incubated for 24 hrs in the presence of Ciprofloxacin by absorbance based microplate reader analysis; type: functional
[19] = system: Pseudomonas aeruginosa; assay: Synergistic antibacterial activity against Pseudomonas aeruginosa 27853 assessed as inhibition of bacterial growth incubated for 24 hrs in the presence of Clarithromycin by absorbance based microplate reader analysis; type: functional, organism-based; conditions: dose 1-256 µg/ml
[20] = system: Pseudomonas aeruginosa; assay: Antibacterial activity against Pseudomonas aeruginosa PAO1 assessed as inhibition of bacterial growth at […] incubated for 24 hrs by absorbance based microplate reader analysis relative to control; type: functional; conditions: dose 3.2 µg/ml
[21] = system: Pseudomonas aeruginosa; assay: Synergistic antibacterial activity against Pseudomonas aeruginosa PAO1 assessed as inhibition of bacterial growth at 256 ug/ml incubated for 24 hrs in the presence of Clarithromycin by absorbance based microplate reader analysis relative to control; type: functional
[22] = system: Pseudomonas aeruginosa; assay: Synergistic antibacterial activity against Pseudomonas aeruginosa PAO1 assessed as inhibition of bacterial growth at 1 to 256 ug/ml incubated for 24 hrs in the presence of Clarithromycin by absorbance based microplate reader analysis; type: functional, organism-based; conditions: dose 1-256 µg/ml
[23] = system: Pseudomonas aeruginosa; assay: Synergistic antibacterial activity against Pseudomonas aeruginosa PAO1 assessed as inhibition of bacterial growth at 1 to 256 ug/ml incubated for 24 hrs in the presence of ciprofloxacin by absorbance based microplate reader analysis; type: functional, organism-based; conditions: dose 1-256 µg/ml
[24] = system: Klebsiella pneumoniae; assay: Antibiofilm activity against Klebsiella pneumoniae ATCC13882 assessed as inhibition of biofilm formation incubated for 24 hrs by crystal violet staining based broth microdilution method; type: functional, organism-based; conditions: ATCC13882, 24 h
[25] = system: Enterococcus faecalis; assay: Antibiofilm activity against Enterococcus faecalis ATCC19433 assessed as inhibition of biofilm formation incubated for 24 hrs by crystal violet staining based broth microdilution method; type: functional, organism-based; conditions: ATCC19433, 24 h
[26] = system: Staphylococcus aureus; assay: Antibiofilm activity against Staphylococcus aureus ATCC33591 assessed as inhibition of biofilm formation incubated for 24 hrs by crystal violet staining based broth microdilution method; type: functional, organism-based; conditions: ATCC33591, 24 h
[27] = system: Pseudomonas aeruginosa; assay: Synergistic antibacterial activity against Pseudomonas aeruginosa 27853 assessed as inhibition of bacterial growth at 256 ug/ml incubated for 24 hrs in the presence of Ciprofloxacin by absorbance based microplate reader analysis relative to control; type: functional
[28] = system: Pseudomonas aeruginosa; assay: Synergistic antibacterial activity against Pseudomonas aeruginosa PAO1 assessed as inhibition of bacterial growth at highest concentration incubated for 24 hrs in the presence of ciprofloxacin by absorbance based microplate reader analysis relative to control; type: functional
[29] = system: Pseudomonas aeruginosa; assay: Synergistic antibacterial activity against Pseudomonas aeruginosa PAO1 assessed as inhibition of bacterial growth at 1 ug/ml incubated for 24 hrs in the presence of ciprofloxacin by absorbance based microplate reader analysis relative to control; type: functional
[30] = system: Pseudomonas aeruginosa; assay: Antibacterial activity against Pseudomonas aeruginosa PAO1 assessed as inhibition of swarming movement at 25.6 to 102.4 ug/ml incubated for 24 hrs; type: functional, organism-based; conditions: dose 25.6-102.4 µg/ml
[31] = system: Pseudomonas aeruginosa; assay: Synergistic antibacterial activity against Pseudomonas aeruginosa PAO1 infected in Kunming mouse model assessed as reduction in viable bacteria at 25 mg/kg, ip pre-infected with bacteria for 1 hrs followed by compound administration and measured after 1 hrs in the presence of ciprofloxacin; type: functional, organism-based
[32] = Inhibition of quorum sensing system in Pseudomonas aeruginosa PAO1 transfected with lasB-gfp reporter assessed as inhibition of fluorescence expression incubated for >=12 hrs by microplate reader analysis; conditions: dose 32-256 µg/ml
[33] = Inhibition of quorum sensing system in Pseudomonas aeruginosa PAO1 transfected with rhlA-gfp reporter assessed as inhibition of fluorescence expression incubated for >=12 hrs by microplate reader analysis; conditions: dose 32-256 µg/ml
[34] = Inhibition of quorum sensing system in Pseudomonas aeruginosa PAO1 transfected with pqsA-gfp reporter assessed as inhibition of fluorescence expression incubated for >=12 hrs by microplate reader analysis; conditions: dose 32-256 µg/ml
[35] = Inhibition of quorum sensing system in Pseudomonas aeruginosa PAO1 transfected with gfp reporter gene assessed as effect on fluorescence expression at 32 to 256 ug/ml incubated for >=12 hrs by microplate reader analysis; conditions: dose 32-256 µg/ml
[36] = Inhibition of quorum sensing system in Escherichia coli MG4/pKDT17 harboring lasR gene with lasB::lacZ translation fusion assessed as inhibition of lasR translation activation by measuring inhibition of […] activity incubated for 8 hrs by absorbance based analysis; conditions: dose 32-128 µg/ml
[37] = Inhibition of quorum sensing system in Escherichia coli pDSY harboring rhlR gene with rhlA::lacZ translation fusion assessed as inhibition of rhlA translation activation by measuring inhibition of […] activity incubated for 8 hrs by absorbance based analysis; conditions: dose 32-128 µg/ml
[38] = Inhibition of quorum sensing system in Escherichia coli pEAL08-2 harboring pqsR gene with pqsA::lacZ translation fusion assessed as inhibition of pqsA translation activation by measuring inhibition of […] activity incubated for 8 hrs by absorbance based analysis; conditions: dose 32-128 µg/ml
[39] = system: Pseudomonas aeruginosa; assay: Inhibition of biofilm formation in Pseudomonas aeruginosa PAO1 assessed as effect on biofilm morphology at 102.4 ug/ml incubated for 24 hrs by scanning electron microscopic analysis; type: functional, organism-based; conditions: dose 102.4 µg/ml
[40] = system: Pseudomonas aeruginosa; assay: Antibacterial activity against Pseudomonas aeruginosa 27853 assessed as inhibition of bacterial growth at […] incubated for 24 hrs by absorbance based microplate reader analysis relative to control; type: functional; conditions: dose 3.2 µg/ml
[41] = system: Pseudomonas aeruginosa; assay: Antibacterial activity against Pseudomonas aeruginosa 27853 assessed as inhibition of bacterial growth at 0.4 ug/ml incubated for 24 hrs by absorbance based microplate reader analysis relative to control; type: functional
[42] = system: Pseudomonas aeruginosa; assay: Antibacterial activity against Pseudomonas aeruginosa PAO1 assessed as inhibition of bacterial growth at 0.4 ug/ml incubated for 24 hrs by absorbance based microplate reader analysis relative to control; type: functional

Row | SMILES | Activity [2] | MIC [3] [µg/mL] | MIC [4] [µg/mL] | MIC [5] [µg/mL] | MIC [6] [µg/mL] | MIC [7] [µg/mL] | MIC [8] [µg/mL] | MIC [9] [µg/mL] | inhibition [10] [%] | Activity [11] | inhibition [12] | inhibition [13] | hemolysis at 1 h, 512 ug/ml [15] [%] | inhibition at 256 µg/mL [16] [%] | Activity [17] | Activity [19] | Activity [22] | Activity [23] | also measured
1 | C=C1OC(=O)C(CNC(=O)c2ccc(C)cc2)=C1c1ccc(F)cc1 | inactive | > 512 | > 512 | > 512 | > 512 | > 512 | > 512 | > 512 | 55.5 | inactive | Active | Active | < 2.5 | 45.4 | Active | Dose-Dependent Effect | Active | Active | inhibition at 1 µg/mL [1]: 54%; inhibition ([14]; dose 32.0 µg/ml): Active; inhibition at 64 µg/mL [18]: 13%; inhibition at […] [20]: 44.6%; inhibition at 256 µg/mL [21]: 44.6%
2 | O=C1O/C(=C\c2cc(Br)c(O)c(Br)c2)C(c2ccc(O)c(Br)c2)=C1C(=O)c1ccccc1 |  |  |  |  |  |  |  |  |  |  |  |  |  |  |  |  |  |  | IC50 [24]: 7.5 µg/mL (≈ 12.1 µM); IC50 [25]: 3.6 µg/mL (≈ 5.8 µM); IC50 [26]: 0.7 µg/mL (≈ 1.13 µM)
3 | C=C1OC(=O)C(CNC(=O)c2ccc(F)cc2)=C1c1ccc(F)cc1 | inactive | > 512 | > 512 | > 512 | > 512 | > 512 | > 512 | > 512 | 31.4 | inactive | 30.6% | Active | > 2.5 | 82.8 | Active | Dose-Dependent Effect | Active | Active | inhibition at 32 µg/mL [14]: 50.7%; inhibition at 256 µg/mL [27]: 77.2%; inhibition (INH) [28]: 90.53%; inhibition at 1 µg/mL [29]: 60.5%; Activity [30]: Active; Activity [31]: Active; inhibition [32]: Dose-Dependent Effect; inhibition [33]: Dose-Dependent Effect; inhibition [34]: Dose-Dependent Effect; inhibition [35]: inactive; inhibition [36]: Dose-Dependent Effect; inhibition [37]: Dose-Dependent Effect; inhibition [38]: Dose-Dependent Effect; inhibition [39]: Active
4 | CC[C@H]1OC(=O)[C@H](C)[C@@H](O[C@H]2C[C@@](C)(OC)[C@@H](O)[C@H](C)O2)[C@H](C)[C@@H](O[C@@H]2O[C@H](C)C[C@H](N(C)C)[C@H]2O)[C@](C)(OC)C[C@@H](C)C(=O)[C@H](C)[C@@H](O)[C@]1(C)O [CLARITHROMYCIN] |  | 0.25 (≈ 0.334 µM) | 0.25 (≈ 0.334 µM) | 0.25 (≈ 0.334 µM) | 16 (≈ 21.4 µM) | 128 (≈ 171 µM) | 128 (≈ 171 µM) | 256 (≈ 342 µM) |  |  |  |  |  |  |  |  |  |  | inhibition at […] [40]: 32.7%
5 | O=C(O)c1cn(C2CC2)c2cc(N3CCNCC3)c(F)cc2c1=O [CIPROFLOXACIN] |  |  |  |  |  |  |  |  |  |  |  |  |  |  |  |  |  |  | inhibition at 0.4 µg/mL [41]: 26.2%; inhibition at 0.4 µg/mL [42]: 42.1%

— ChEMBL document CHEMBL5331108, “Design and Synthesis of 4-Fluorophenyl-5-methylene-2(5H)-furanone Derivatives as Potent Quorum Sensing Inhibitors” (J Med Chem, 2023)
